Source: the Biogen ADME set (Fang et al. 2023)
Converted amounts (≈) assume the structure as drawn.

Conditions: for aqueous solubility: pH 6.8

Row | Compound | intrinsic clearance, human liver microsomes | intrinsic clearance, rat liver microsomes | MDR1-MDCK efflux ratio | aqueous solubility | fraction unbound, human plasma | fraction unbound, rat plasma
1 | CC(=O)Nc1ccc(C(=O)Nc2cc(-c3cccs3)ccc2N)cc1 | 9.52 mL/min/kg | 65.2 mL/min/kg | – | – | – | –
2 | CCOc1ccc(-c2ccccc2NC(=O)COC)cc1 | 398 mL/min/kg | 4200 mL/min/kg | 0.401 | 37.3 µg/mL (≈ 131 µM) | – | –
3 | Cc1nc2cc(NC(=O)Cc3c(C)nc4ccccc4c3C)ccc2o1 | 8.56 mL/min/kg | 254 mL/min/kg | 4.57 | 23.1 µg/mL (≈ 66.9 µM) | – | –
4 | O=S(=O)(NC[C@H]1CCCN1)c1ccc(OC(F)F)cc1 | ≤ 4.74 mL/min/kg | 34.5 mL/min/kg | 2.89 | – | – | –
5 | Cc1nc(-c2ccccc2)c(C(=O)Nc2cc(Cl)cc(Cl)c2)s1 | 25.7 mL/min/kg | 230 mL/min/kg | – | – | – | –
6 | O=c1c2ccccc2nnn1CCOc1ccc(F)cc1 | 26.1 mL/min/kg | 124 mL/min/kg | 0.42 | – | – | –
7 | Cc1ccc(NC(=O)CN(C)C(=O)c2ccccc2F)nc1 | ≤ 4.74 mL/min/kg | 103 mL/min/kg | 1.43 | 54 µg/mL (≈ 179 µM) | – | –
8 | O=C(Nc1ccccn1)c1ccc2c(c1)C(=O)N(C1CCCCC1)C2=O | 11.8 mL/min/kg | 791 mL/min/kg | 0.393 | – | – | –
9 | Nc1nc(-c2ccccc2)c(C(=O)Nc2ccc(Cl)c(Cl)c2)s1 | – | – | 0.643 | 0.5 µg/mL (≈ 1.37 µM) | – | –
10 | COCc1ncc(CN2CCC(Oc3cccc(C)c3)CC2)cn1 | 10.2 mL/min/kg | 131 mL/min/kg | – | – | – | –
11 | O=C(O)c1cnn(-c2nc3cc(Cl)c(OC(F)(F)F)cc3[nH]2)c1 | ≤ 4.74 mL/min/kg | ≤ 10.7 mL/min/kg | 1.05 | – | – | –
12 | O=C(OCC1CCSCC1)c1cccc(-n2cccn2)n1 | 679 mL/min/kg | 2200 mL/min/kg | 0.495 | – | – | –
13 | CN(C)c1cccc(C(=O)N2CCCC(c3cccc(-c4cccs4)n3)C2)c1 (stereo not drawn) | 499 mL/min/kg | 3630 mL/min/kg | 0.647 | 2.1 µg/mL (≈ 5.36 µM) | – | –
14 | c1cncc(-c2ccnn2CN2CCOCC2)c1 | – | – | – | 17.3 µg/mL (≈ 71 µM) | – | –
15 | Cc1noc(C)c1-c1cc(-c2ccccc2Cl)nc(C2CC2)n1 | 21.8 mL/min/kg | 145 mL/min/kg | 0.516 | – | – | –
16 | Cc1oc(C)c(C(=O)NCC#Cc2ccccc2)c1C | 107 mL/min/kg | 1320 mL/min/kg | 0.446 | 48 µg/mL (≈ 180 µM) | – | –
17 | CCC(CC)NC(=O)c1ccc(C#N)c(C)n1 | 6.17 mL/min/kg | 50 mL/min/kg | – | 52.9 µg/mL (≈ 229 µM) | – | –
18 | Cc1nn(-c2ccccn2)c2nc(C3CC3)cc(C(=O)O)c12 | 4.89 mL/min/kg | ≤ 10.7 mL/min/kg | 2.52 | 51.2 µg/mL (≈ 174 µM) | – | –
19 | Cc1ccc(C(=O)Nc2ncccc2C)s1 | 6.72 mL/min/kg | 34.6 mL/min/kg | 0.664 | 37.8 µg/mL (≈ 163 µM) | – | –
20 | CC(C)CC(=O)NCC(=O)N1CCCC1 | ≤ 4.74 mL/min/kg | ≤ 10.7 mL/min/kg | 1.2 | 61.5 µg/mL (≈ 290 µM) | – | –

Row | Compound | intrinsic clearance, human liver microsomes | intrinsic clearance, rat liver microsomes | MDR1-MDCK efflux ratio | aqueous solubility | fraction unbound, human plasma | fraction unbound, rat plasma
21 | CC(C)OC(=O)N1CCC(Oc2ncnc3c2cnn3-c2ccc(S(C)(=O)=O)cc2F)CC1 | – | – | 1.61 | – | – | –
22 | O=C(NCCNc1ncccc1C(F)(F)F)c1cnc2ccccn2c1=O | 27.8 mL/min/kg | 585 mL/min/kg | 1.09 | 66.6 µg/mL (≈ 177 µM) | – | –
23 | COc1ccc(-c2nc3cc(C)ccc3cc2CN(C)Cc2nccn2C)cc1 | 296 mL/min/kg | 2500 mL/min/kg | 4.84 | 18 µg/mL (≈ 46.6 µM) | – | –
24 | O=C(C1CCCCC1)N1CCC[C@H]1Cn1nnc(-c2cccs2)n1 | 130 mL/min/kg | 5120 mL/min/kg | – | – | – | –
25 | CN1CCC(=C2c3ccccc3CCc3sccc32)CC1 | 15.1 mL/min/kg | 2130 mL/min/kg | 0.862 | – | – | –
26 | Cc1ccc(C(=O)NC2CCN(CC#N)CC2)cc1Br | ≤ 4.74 mL/min/kg | 97.6 mL/min/kg | 0.9 | 2.04 µg/mL (≈ 6.07 µM) | – | –
27 | O=C(Nc1nc2ccccc2[nH]1)C1CC1c1ccccc1 (stereo not drawn) | – | – | – | 1.1 µg/mL (≈ 3.97 µM) | – | –
28 | c1ccc(OCCN2CCN(c3ncccn3)CC2)cc1 | 126 mL/min/kg | 516 mL/min/kg | 0.534 | – | – | –
29 | CC1=NN(c2ccc(F)cc2)C(=O)/C1=C(/C)Nc1ccc(S(N)(=O)=O)cc1 | ≤ 4.74 mL/min/kg | ≤ 10.7 mL/min/kg | 12 | 28.4 µg/mL (≈ 73 µM) | – | –
30 | O=C(Cc1c(F)cccc1Cl)Nc1cccc2cnccc12 | 62.6 mL/min/kg | 288 mL/min/kg | 0.889 | 2.09 µg/mL (≈ 6.64 µM) | – | –
31 | Cc1ccc(C(=O)C(=O)NC2CCCC2)cc1 | 104 mL/min/kg | 465 mL/min/kg | 0.471 | 30.2 µg/mL (≈ 131 µM) | – | –
32 | CNC(=O)c1cc(C2CCN(C)CC2)ncn1 | ≤ 4.74 mL/min/kg | ≤ 10.7 mL/min/kg | 0.605 | 32.5 µg/mL (≈ 139 µM) | – | –
33 | Cn1cc(-c2cn3nccc3c(-c3cnn([C@]4(CC#N)C[C@@H](C#N)C4)c3)n2)cn1 | ≤ 4.74 mL/min/kg | ≤ 10.7 mL/min/kg | 53.3 | 2.2 µg/mL (≈ 5.74 µM) | 0.363 | 0.231
34 | Cc1ccc(Cl)c(OC[C@@]2(O)CN(C3CCCC3)CC[C@@H]2O)c1 | 325 mL/min/kg | 2250 mL/min/kg | 1.03 | – | – | –
35 | CN(c1ncc(Br)cn1)C1CCS(=O)CC1 (stereo not drawn) | ≤ 4.74 mL/min/kg | 25.7 mL/min/kg | 0.943 | 76.3 µg/mL (≈ 251 µM) | – | –
36 | C/N=C(\NC#N)NCCSCc1nc[nH]c1C | ≤ 4.74 mL/min/kg | ≤ 10.7 mL/min/kg | – | 41.6 µg/mL (≈ 165 µM) | – | –
37 | CC(C)c1noc(CNC(=O)N2C[C@H]3C[C@@H](C2)c2cccc(=O)n2C3)n1 | 7.35 mL/min/kg | 73.7 mL/min/kg | 3.14 | – | – | –
38 | N#CC1(NC(=O)C2CCCCCC2)CC1 | ≤ 4.74 mL/min/kg | ≤ 10.7 mL/min/kg | – | 33.4 µg/mL (≈ 162 µM) | – | –
39 | Brc1cc2c(cc1Cn1cncn1)OCCCO2 | 7.7 mL/min/kg | 228 mL/min/kg | 0.566 | 34.4 µg/mL (≈ 111 µM) | – | –
40 | Cc1cc(N2CCN(C(=O)OC(C)(C)C)[C@H](C)C2)ncn1 | 9.46 mL/min/kg | 124 mL/min/kg | 0.766 | 51.7 µg/mL (≈ 177 µM) | – | –

Row | Compound | intrinsic clearance, human liver microsomes | intrinsic clearance, rat liver microsomes | MDR1-MDCK efflux ratio | aqueous solubility | fraction unbound, human plasma | fraction unbound, rat plasma
41 | CCc1nsc(N2CCS(=O)(=O)CC2)n1 | ≤ 4.74 mL/min/kg | ≤ 10.7 mL/min/kg | – | – | – | –
42 | Cc1nonc1C(=O)Nc1cccnc1N(C)C | 16.6 mL/min/kg | 173 mL/min/kg | – | – | – | –
43 | CCc1ccc(NC(=O)C2CCN(c3ccc4nncn4n3)CC2)cc1 | 4.86 mL/min/kg | 34.6 mL/min/kg | 13.6 | 1.15 µg/mL (≈ 3.28 µM) | – | –
44 | Nc1ncnc2ccc(-c3ccnc(F)c3)nc12 | ≤ 4.74 mL/min/kg | ≤ 10.7 mL/min/kg | 0.726 | – | – | –
45 | CC(=O)N(C)[C@@H]1CO[C@@H]2CCN(C[C@]3(O)CC[C@@H](C(C)(C)C)CC3)C[C@@H]2C[C@@]1(C)O | 65 mL/min/kg | 276 mL/min/kg | 23.5 | – | – | –
46 | Cc1noc(-c2ccc(-c3ccc(CC(=O)O)cc3)cc2)c1NC(=O)O[C@H](C)c1ccccc1Cl | ≤ 4.74 mL/min/kg | 19.5 mL/min/kg | 7.69 | 10.4 µg/mL (≈ 21.2 µM) | – | –
47 | Cc1noc(NCc2ccc(F)cc2C)n1 | ≤ 4.74 mL/min/kg | 68.3 mL/min/kg | 0.589 | – | – | –
48 | O=C(Nc1cncc2ccccc12)c1ncccn1 | 37.6 mL/min/kg | 14.3 mL/min/kg | 0.676 | – | – | –
49 | CN(C)c1ncn(-c2cccc(N)c2)n1 | 15.3 mL/min/kg | 25.4 mL/min/kg | 0.596 | 22.1 µg/mL (≈ 109 µM) | – | –
50 | O=C(C1CC1)N1CCCC(C(=O)N2CCc3ccccc3C2Cc2ccccc2)C1 (stereo not drawn) | 643 mL/min/kg | 4390 mL/min/kg | – | 45 µg/mL (≈ 112 µM) | – | –
51 | Nc1c(F)ccc2cnc(-n3ccc4ccncc43)cc12 | 368 mL/min/kg | 2360 mL/min/kg | – | – | 0.0517 | 0.0428
52 | Cc1nc(-c2ccccc2)c(C(=O)Nc2ccccc2)s1 | – | – | 0.571 | 0.9 µg/mL (≈ 3.06 µM) | – | –
53 | COc1ccc(CCC(=O)N2CCCNCC2)cc1 | ≤ 4.74 mL/min/kg | ≤ 10.7 mL/min/kg | 2.76 | 35.7 µg/mL (≈ 136 µM) | – | –
54 | CCCc1cc(N2CCc3c(nc(C(C)C)n3C)C2)n2ncnc2n1 | 14.3 mL/min/kg | 183 mL/min/kg | 15.2 | 56.4 µg/mL (≈ 166 µM) | – | –
55 | CC(=O)NC[C@H]1C[C@]2(C)[C@@H](CCCC[C@]2(C)O)N1CC1(O)CCOCC1 | 8.98 mL/min/kg | 41.2 mL/min/kg | 9.46 | – | – | –
56 | Fc1ccc(CN2CCCN(c3ccc4nnnn4n3)CC2)cc1 | 31.9 mL/min/kg | 620 mL/min/kg | 0.606 | – | – | –
57 | N#CCC1(n2cc(-c3ncnc4[nH]ccc34)cn2)CNC1 | – | – | – | 32.6 µg/mL (≈ 117 µM) | – | –
58 | CS(=O)(=O)N1CCN(Cc2cc3c(cc2O)OCO3)CC1 | 28.6 mL/min/kg | 278 mL/min/kg | – | – | – | –
59 | CN1CCC[C@@H]1CCO[C@](C)(c1ccccc1)c1ccc(Cl)cc1 | 24.8 mL/min/kg | 1090 mL/min/kg | – | 98.7 µg/mL (≈ 287 µM) | – | –
60 | Fc1ccc2oc(Cn3nnc(-c4ccsc4)n3)nc2c1 | – | – | – | 30.2 µg/mL (≈ 100 µM) | – | –
